This is an account of results in article PMC6338644 (The FASEB Journal, 2018).

Bounds are passed on as bounds.

In assay [1] the test system is Immortalized human podocytes. Kind of assay: Glucose uptake assay in podocytes. In kind it is cell-based. The procedure:
(§1) Immortalized human podocytes were maintained as previously described ([10]). […] Podocytes were lysed as previously described ([21]).
(§2) Glucose uptake assay and On-Cell Western were performed essentially as in Tolvanen et al. ([19]). […] Cells were transferred on ice; incubated with anti-HA IgG in serum-free medium for 15 min, followed by additional incubation in fresh cell differentiation medium for 15 min at +37°C; and fixed with 2% paraformaldehyde for 20 min. Cells were incubated with IRDye 800 donkey anti-mouse IgG and nuclear marker DRAQ-5 (Thermo Fisher Scientific). Detection and quantitation were performed with the Odyssey Infrared Imager (Li-Cor Biosciences, Lincoln, NE, USA).
(§3) L6-GLUT4 myotubes overexpressing SHIP2 were treated and glucose uptake performed as described in C. […] Time point 15 min indicates the amount of HA detected on the cells after 15 min internalization.

Assay [2] addresses T1, His-tagged human SHIP2 phosphatase domain (Homo sapiens, UniProt O15357).
T1 construct: we produced a His-tagged human SHIP2 phosphatase domain; His; made in house
T1 sequence (O15357 419-732 limits assumed): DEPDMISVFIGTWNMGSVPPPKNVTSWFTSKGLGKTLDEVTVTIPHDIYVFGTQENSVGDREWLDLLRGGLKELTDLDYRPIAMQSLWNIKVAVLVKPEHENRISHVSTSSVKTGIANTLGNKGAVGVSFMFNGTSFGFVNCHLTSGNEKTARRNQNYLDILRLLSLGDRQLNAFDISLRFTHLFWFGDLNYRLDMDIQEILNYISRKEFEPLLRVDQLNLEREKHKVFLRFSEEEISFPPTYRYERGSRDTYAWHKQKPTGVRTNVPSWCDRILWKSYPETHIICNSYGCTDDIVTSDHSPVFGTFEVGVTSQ
Kind of assay: Malachite green phosphate assay, recombinant SHIP2 phosphatase domain (High Throughput Biomedicine Unit, 384-well). The format is biochemical. The settings on record: for inhibition at 100 µM: inhibitors at 100 µM concentration, read-out: SHIP2 Inhibition efficiency; for IC50: purified His-tagged phosphatase domain, 100 µM PI(3,4,5)P3. The procedure:
(§4) Recombinant His-tagged human SHIP2 and SHIP1 phosphatase domains were produced as previously described ([17]). […] Immunocomplexes were bound to protein G-Sepharose beads at +4°C for 2 h and washed 3 times with malachite green phosphate assay buffer {10 mM 4-(2-hydroxyethyl)-1-piperazineethanesulfonic acid (HEPES), pH 7.25, 6 mM MgCl2, 0.1% 3-[(3-cholamidopropyl)dimethylammonio]-1-propanesulfonate (CHAPS), 250 mM sucrose, and 0.25 mM EDTA}.
(§5) The catalytic activities of the recombinant SHIP2 and SHIP1 phosphatase domains were determined by malachite green phosphate assay at the High Throughput Biomedicine Unit (University of Helsinki) using D-myo-PI(3,4,5)P3 (Echelon Biosciences, Salt Lake City, UT, USA). Different volumes, resulting in desired final concentrations of inhibitors, were transferred to the wells of 384-well plates by using the Echo550 acoustic dispenser (Labcyte, San Jose, CA, USA). Recombinant protein (100 ng) in reaction buffer {10 mM HEPES, pH 7.25, 6 mM MgCl2, 0.1% CHAPS, 250 mM sucrose, and 0.25 mM EDTA} was placed in each well (7.5 µl), and the plates were preincubated at room temperature for 15 min. The phosphatase reaction was started by adding PI(3,4,5)P3 diluted in the reaction buffer (7.5 µl) to each well to reach a final concentration of 100 µM PI(3,4,5)P3 in the 15 µl reaction volume. The plates were incubated at room temperature for 20 min, after which, 15 µl BIOMOL green reagent (Biomol, Plymouth Meeting, PA, USA) was added to each well, and then the plates were incubated for another 25 min at room temperature. Absorbance was measured at 620 nm using a Pherastar FS plate reader (BMG Labtech, Offenburg, Germany). For the manual malachite green phosphate assay in 96-well plates [see Fig. 1; and activity measurement of phosphatase and tensin homolog (PTEN; Signalchem, Richmond, BC, Canada)], the reaction volume was increased to 50 µl, and 100 µl Biomol Green Reagent was added. The catalytic activity of SHIP2 immunoprecipitated from cell and tissue lysates was determined as in Saurus et al. ([22]), omitting SHIP2 inhibitors in lysis buffer, immunoprecipitation reaction, wash, and assay buffers. AS1949490 was synthesized, as described in Supplemental Fig. S1A, or purchased from Tocris Bioscience (Bristol, United Kingdom).

The target of assay [3] is T2, His-tagged human SHIP1 phosphatase domain (Homo sapiens, UniProt Q92835).
T2 construct: Recombinant His-tagged human SHIP2 and SHIP1 phosphatase domains were produced as previously described; His; made in house
T2 sequence (Q92835 399-715 limits assumed): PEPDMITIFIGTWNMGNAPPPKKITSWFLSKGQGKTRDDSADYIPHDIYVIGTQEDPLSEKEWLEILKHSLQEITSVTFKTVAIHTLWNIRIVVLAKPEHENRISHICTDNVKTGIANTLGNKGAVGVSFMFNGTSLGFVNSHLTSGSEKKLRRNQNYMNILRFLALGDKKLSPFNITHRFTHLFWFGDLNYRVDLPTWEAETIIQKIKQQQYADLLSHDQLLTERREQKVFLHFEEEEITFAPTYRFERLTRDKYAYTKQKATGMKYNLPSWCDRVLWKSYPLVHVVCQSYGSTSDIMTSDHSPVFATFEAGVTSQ
Kind of assay: Malachite green phosphate assay, recombinant SHIP1 phosphatase domain (High Throughput Biomedicine Unit). In kind it is biochemical. The settings on record: for inhibition at 100 µM: inhibitors at 100 µM concentration, read-out: SHIP1 Inhibition efficiency; for IC50: purified His-tagged phosphatase domain. The procedure: as §4, §5

The test system of the next assay is db/db mice. The settings on record: cited from earlier work.
The test system of the next assay is L6-GLUT4 myotubes. Kind of assay: Glucose uptake assay in L6-GLUT4 myotubes. In kind it is cell-based, rat. The settings on record: insulin 100 nM, 15 min; serum-starved. Here is the method: as §1, §2, §3
For assay [4], the system named is HA-GLUT4-GFP at the plasma membrane of L6-GLUT4 cells. Kind of assay: On-Cell Western and HA-GLUT4-GFP endocytosis assay in L6-GLUT4 cells. In kind it is cell-based, rat. The settings on record: insulin 100 nM, 15 min. The procedure: as §2
C) Knockdown of SHIP2 reduces metformin-induced glucose uptake. […] L6-GLUT4 myotubes overexpressing SHIP2 were treated and glucose uptake performed as described in C. […] Time point 15 min indicates the amount of HA detected on the cells after 15 min internalization.

On to `NC(=O)c1ncn([C@@H]2O[C@H](CO)[C@@H](O)[C@H]2O)c1N` [AICAR, 5-aminoimidazole-4-carboxamide ribonucleoside], for which the “glucose uptake in podocytes” value in assay [1] (AICAR 1 mM, 20–24 h, alone) is “failed to increase”. The “glucose uptake in podocytes, insulin combined with AICAR” value in assay [1] (AICAR 1 mM, 20–24 h plus insulin 200 nM, 15 min) is “failed to increase”.

Take `CC(=O)O[C@]1(C(C)=O)CC[C@H]2[C@@H]3C=C(C)C4=CC(=O)CC[C@]4(C)[C@H]3CC[C@@]21C` [Megestrol acetate, 17-(acetyloxy)-6-methylpregna-4,6-diene-3,20-dione]: in assay [2], the inhibition at 100 µM stood at 76.6% and the IC50 was found to be 6.2 µM. Moreover, in assay [3], the inhibition at 100 µM was 30% and the IC50 was found to be 24.6 µM.

For the compound `Sc1ncnc2nc[nH]c12` [Mercaptopurine, 3,7-dihydropurine-6-thione], in assay [2], the inhibition at 100 µM worked out at 52.9% and the IC50 was 8.8 µM. Also, in assay [3], the inhibition at 100 µM worked out at 11.4% and the IC50 is 21.2 µM.

Take `O=C(Cc1c(F)cccc1F)Nc1cc(OCc2ccc(Cl)cc2)ccn1` [N-[4-(4-chlorobenzyloxy)pyridin-2-yl]-2-(2,6-difluorophenyl)-acetamide]: in the assay with db/db mice, the “PCK1 expression in db/db mice” value is “reduce”.

As for `Nc1nc2nc[nH]c2c(=S)[nH]1` [Thioguanine, 2-Amino-1H-purine-6(7H)-thione], in assay [2], the inhibition at 100 µM worked out at 44.9% and the IC50 was found to be 9 µM. Also, in assay [3], the inhibition at 100 µM worked out at 29.9% and the IC50 was > 50 µM.

Take “Insulin: insulin used to stimulate cells (100 or 200 nM, 15 min)”: the “increase in glucose uptake in L6-GLUT4 cells” value in the assay with L6-GLUT4 myotubes turned out to be 20%. In assay [4], the “decrease in amount of HA-GLUT4-GFP on the PM after 15 min uptake (endocytosis)” value is 20%. The “glucose uptake in podocytes” value in assay [1] (insulin 200 nM, 15 min) is “did not respond”.

What is called inhibition is the share of the control response that was lost under treatment. The term IC50 denotes the point on the concentration scale where inhibition reaches its midpoint.
